Test results from patent publication US20020048549A1, “Radioactive transition metal nitride heterocomplex” (priority 1996, published 2002).
Like-named read-outs stand apart in the source and are kept apart here. Blank lines part the entries; values can stand above or below the molecule they belong to.

Test: Biodistribution of 99mTc(N)(X)(DTC)+ heterocomplexes in rats
Format: in vivo, male Spraque-Dawley rats (SD rats)
Description: The biodistribution of a ^99mTc nitride heterocomplex represented by the general formula ^99mTc(N)(X)(Y) was investigated as follows: ^99mTc nitride heterocomplexes were synthesized using DTC as a bidentate ligand Y and each of the diphosphine compounds X described below, and the biodistribution in rats of each heterocomplex was investigated.
Before being injected into rats, the contents of the vial were diluted with phosphate buffer (0.1 mol/dm^3, pH=7.06) containing 10% Tween 80 ([…]). The complexes were stable in the solutions and in human plasma for at least 6 hours.
The biodistribution was measured using male Spraque-Dawley rats (SD rats) weighing 200 to 250 g. After 24 hours fasting, the rats were put under intraperitoneal anesthesia and given an injection in the jugular vein. Then, the organs were excised from the rats at different intervals of time, washed and then weighed. In addition, blood samples were collected and then weighed. The data on the biodistribution are expressed as the mean±significant difference of the percentage of radioactivity level per gram of the organ weight based on the dose of radioactivity, (% dose/g). The measurement was carried out using groups of 5 rats each.

Bone % dose/g: 0.198 ± 0.03 % dose/g | Heart % dose/g: 2.704 ± 0.03 % dose/g | Liver % dose/g: 1.5 ± 0.02 % dose/g | Spleen % dose/g: 1.686 ± 0.03 % dose/g | Blood % dose/g (0 min after injection): 1.149 ± 0.04 % dose/g | Brain % dose/g (0 min after injection): 0.096 ± 0.00 % dose/g | Intestine % dose/g (0 min after injection): 2.578 ± 0.350 % dose/g | Kidney % dose/g (0 min after injection): 8.289 ± 0.03 % dose/g | Lung % dose/g (0 min after injection): 2.133 ± 0.03 % dose/g | Muscle % dose/g (0 min after injection): 0.232 ± 0.07 % dose/g | Stomach % dose/g (0 min after injection): 1.121 ± 0.01 % dose/g | Blood % dose/g (2 min after injection): 0.421 ± 0.10 % dose/g | Bone % dose/g (2 min after injection): 2.242 ± 0.02 % dose/g | Brain % dose/g (2 min after injection): 0.035 ± 0.01 % dose/g | Heart % dose/g (2 min after injection): 3.007 ± 0.16 % dose/g | Intestine % dose/g (2 min after injection): 4.188 ± 0.60 % dose/g | Kidney % dose/g (2 min after injection): 9.676 ± 0.620 % dose/g | Liver % dose/g (2 min after injection): 2.778 ± 0.06 % dose/g | Lung % dose/g (2 min after injection): 0.995 ± 0.17 % dose/g | Muscle % dose/g (2 min after injection): 0.264 ± 0.09 % dose/g | Spleen % dose/g (2 min after injection): 1.215 ± 0.1 % dose/g | Stomach % dose/g (2 min after injection): 0.740 ± 0.02 % dose/g | Blood % dose/g (10 min after injection): 0.147 ± 0.02 % dose/g | Bone % dose/g (10 min after injection): 0.204 ± 0.00 % dose/g | Brain % dose/g (10 min after injection): 0.019 ± 0.00 % dose/g | Heart % dose/g (10 min after injection): 2.506 ± 0.10 % dose/g | Intestine % dose/g (10 min after injection): 10.959 ± 1.64 % dose/g | Kidney % dose/g (10 min after injection): 6.559 ± 0.928 % dose/g | Liver % dose/g (10 min after injection): 1.719 ± 0.14 % dose/g | Lung % dose/g (10 min after injection): 0.725 ± 0.104 % dose/g | Muscle % dose/g (10 min after injection): 0.252 ± 0.01 % dose/g | Spleen % dose/g (10 min after injection): 0.856 ± 0.12 % dose/g | Stomach % dose/g (10 min after injection): 0.852 ± 0.118 % dose/g | Blood % dose/g (30 min after injection): 0.098 ± 0.01 % dose/g | Bone % dose/g (30 min after injection): 0.230 ± 0.04 % dose/g | Brain % dose/g (30 min after injection): 0.012 ± 0.00 % dose/g | Heart % dose/g (30 min after injection): 2.551 ± 0.10 % dose/g | Intestine % dose/g (30 min after injection): 10.201 ± 1.28 % dose/g | Kidney % dose/g (30 min after injection): 5.354 ± 1.00 % dose/g | Liver % dose/g (30 min after injection): 0.732 ± 0.08 % dose/g | Lung % dose/g (30 min after injection): 0.446 ± 0.00 % dose/g | Muscle % dose/g (30 min after injection): 0.273 ± 0.05 % dose/g | Spleen % dose/g (30 min after injection): 0.550 ± 0.06 % dose/g | Stomach % dose/g (30 min after injection): 1.511 ± 0.39 % dose/g | Blood % dose/g (1 hr after injection): 0.071 ± 0.00 % dose/g | Bone % dose/g (1 hr after injection): 0.099 ± 0.00 % dose/g | Brain % dose/g (1 hr after injection): 0.014 ± 0.00 % dose/g | Heart % dose/g (1 hr after injection): 2.155 ± 0.29 % dose/g | Intestine % dose/g (1 hr after injection): 5.447 ± 0.87 % dose/g | Kidney % dose/g (1 hr after injection): 4.127 ± 0.178 % dose/g | Liver % dose/g (1 hr after injection): 0.500 ± 0.01 % dose/g | Lung % dose/g (1 hr after injection): 0.329 ± 0.05 % dose/g | Muscle % dose/g (1 hr after injection): 0.236 ± 0.04 % dose/g | Spleen % dose/g (1 hr after injection): 0.238 ± 0.02 % dose/g | Stomach % dose/g (1 hr after injection): 0.892 ± 0.085 % dose/g | Blood % dose/g (2 hr after injection): 0.049 ± 0.00 % dose/g | Bone % dose/g (2 hr after injection): 0.121 ± 0.00 % dose/g | Brain % dose/g (2 hr after injection): 0.009 ± 0.00 % dose/g | Heart % dose/g (2 hr after injection): 2.721 ± 0.06 % dose/g | Intestine % dose/g (2 hr after injection): 2.720 ± 0.11 % dose/g | Kidney % dose/g (2 hr after injection): 3.139 ± 0.20 % dose/g | Liver % dose/g (2 hr after injection): 0.164 ± 0.04 % dose/g | Lung % dose/g (2 hr after injection): 0.312 ± 0.2 % dose/g | Muscle % dose/g (2 hr after injection): 0.268 ± 0.88 % dose/g | Spleen % dose/g (2 hr after injection): 0.300 ± 0.05 % dose/g | Stomach % dose/g (2 hr after injection): 1.521 ± 0.50 % dose/g | Blood % dose/g (4 hr after injection): 0.030 ± 0.00 % dose/g | Bone % dose/g (4 hr after injection): 0.079 ± 0.01 % dose/g | Brain % dose/g (4 hr after injection): 0.009 ± 0.00 % dose/g | Heart % dose/g (4 hr after injection): 2.503 ± 0.13 % dose/g | Intestine % dose/g (4 hr after injection): 1.810 ± 0.716 % dose/g | Kidney % dose/g (4 hr after injection): 2.536 ± 0.12 % dose/g | Liver % dose/g (4 hr after injection): 0.155 ± 0.00 % dose/g | Lung % dose/g (4 hr after injection): 0.219 ± 0.01 % dose/g | Muscle % dose/g (4 hr after injection): 0.245 ± 0.031 % dose/g | Spleen % dose/g (4 hr after injection): 0.195 ± 0.02 % dose/g | Stomach % dose/g (4 hr after injection): 0.485 ± 0.07 % dose/g | elimination from kidney and liver (rats): relatively rapidly eliminated | washout from lung and blood (rats): rapidly washed out | accumulation in heart (rats, throughout the measurement): very large amount
SMILES: COCCC[P]1(CCCOC)CCN(CCOC)CC[P](CCCOC)(CCCOC)[99Tc+]12(#[N])[NH]N(C)C(SC)=[S]2 [^99mTc(N)(PNP3)(DTC)^+]

Bone % dose/g: 0.225 ± 0.01 % dose/g | Heart % dose/g: 0.923 ± 0.04 % dose/g | Liver % dose/g: 3.662 ± 0.43 % dose/g | Spleen % dose/g: 2.202 ± 0.07 % dose/g | Blood % dose/g (0 min after injection): 2.617 ± 0.04 % dose/g | Brain % dose/g (0 min after injection): 0.142 ± 0.14 % dose/g | Intestine % dose/g (0 min after injection): 0.482 ± 0.02 % dose/g | Kidney % dose/g (0 min after injection): 3.141 ± 0.35 % dose/g | Lung % dose/g (0 min after injection): 2.792 ± 0.18 % dose/g | Muscle % dose/g (0 min after injection): 0.087 ± 0.00 % dose/g | Stomach % dose/g (0 min after injection): 0.522 ± 0.09 % dose/g | Blood % dose/g (2 min after injection): 1.254 ± 0.19 % dose/g | Bone % dose/g (2 min after injection): 0.214 ± 0.05 % dose/g | Brain % dose/g (2 min after injection): 0.073 ± 0.00 % dose/g | Heart % dose/g (2 min after injection): 0.73 ± 0.07 % dose/g | Intestine % dose/g (2 min after injection): 0.581 ± 0.06 % dose/g | Kidney % dose/g (2 min after injection): 5.952 ± 0.74 % dose/g | Liver % dose/g (2 min after injection): 4.821 ± 0.71 % dose/g | Lung % dose/g (2 min after injection): 2.387 ± 0.08 % dose/g | Muscle % dose/g (2 min after injection): 0.075 ± 0.00 % dose/g | Spleen % dose/g (2 min after injection): 3.587 ± 0.99 % dose/g | Stomach % dose/g (2 min after injection): 0.493 ± 0.02 % dose/g | Blood % dose/g (10 min after injection): 0.542 ± 0.02 % dose/g | Bone % dose/g (10 min after injection): 0.306 ± 0.07 % dose/g | Brain % dose/g (10 min after injection): 0.029 ± 0.00 % dose/g | Heart % dose/g (10 min after injection): 0.434 ± 0.05 % dose/g | Intestine % dose/g (10 min after injection): 0.934 ± 0.03 % dose/g | Kidney % dose/g (10 min after injection): 4.805 ± 0.51 % dose/g | Liver % dose/g (10 min after injection): 6.161 ± 0.47 % dose/g | Lung % dose/g (10 min after injection): 1.19 ± 0.40 % dose/g | Muscle % dose/g (10 min after injection): 0.069 ± 0.01 % dose/g | Spleen % dose/g (10 min after injection): 3.538 ± 0.70 % dose/g | Stomach % dose/g (10 min after injection): 0.653 ± 0.06 % dose/g | Blood % dose/g (30 min after injection): 0.547 ± 0.01 % dose/g | Bone % dose/g (30 min after injection): 0.21 ± 0.02 % dose/g | Brain % dose/g (30 min after injection): 0.023 ± 0.00 % dose/g | Heart % dose/g (30 min after injection): 0.428 ± 0.05 % dose/g | Intestine % dose/g (30 min after injection): 0.64 ± 0.00 % dose/g | Kidney % dose/g (30 min after injection): 3.25 ± 1.12 % dose/g | Liver % dose/g (30 min after injection): 6.199 ± 0.15 % dose/g | Lung % dose/g (30 min after injection): 1.05 ± 0.13 % dose/g | Muscle % dose/g (30 min after injection): 0.083 ± 0.03 % dose/g | Spleen % dose/g (30 min after injection): 2.07 ± 0.55 % dose/g | Stomach % dose/g (30 min after injection): 0.216 ± 0.01 % dose/g | Blood % dose/g (1 hr after injection): 0.261 ± 0.14 % dose/g | Bone % dose/g (1 hr after injection): 0.327 ± 0.02 % dose/g | Brain % dose/g (1 hr after injection): 0.019 ± 0.00 % dose/g | Heart % dose/g (1 hr after injection): 0.42 ± 0.05 % dose/g | Intestine % dose/g (1 hr after injection): 1.236 ± 0.03 % dose/g | Kidney % dose/g (1 hr after injection): 5.054 ± 0.18 % dose/g | Liver % dose/g (1 hr after injection): 5.128 ± 0.15 % dose/g | Lung % dose/g (1 hr after injection): 0.771 ± 0.09 % dose/g | Muscle % dose/g (1 hr after injection): 0.068 ± 0.01 % dose/g | Spleen % dose/g (1 hr after injection): 3.542 ± 1.23 % dose/g | Stomach % dose/g (1 hr after injection): 0.944 ± 0.16 % dose/g | Blood % dose/g (2 hr after injection): 0.145 ± 0.01 % dose/g | Bone % dose/g (2 hr after injection): 0.296 ± 0.01 % dose/g | Brain % dose/g (2 hr after injection): 0.018 ± 0.01 % dose/g | Heart % dose/g (2 hr after injection): 0.384 ± 0.00 % dose/g | Intestine % dose/g (2 hr after injection): 1.478 ± 0.09 % dose/g | Kidney % dose/g (2 hr after injection): 5.145 ± 0.11 % dose/g | Liver % dose/g (2 hr after injection): 3.05 ± 0.07 % dose/g | Lung % dose/g (2 hr after injection): 0.757 ± 0.05 % dose/g | Muscle % dose/g (2 hr after injection): 0.066 ± 0.03 % dose/g | Spleen % dose/g (2 hr after injection): 4.32 ± 0.19 % dose/g | Stomach % dose/g (2 hr after injection): 1.857 ± 0.22 % dose/g | Blood % dose/g (4 hr after injection): 0.125 ± 0.00 % dose/g | Bone % dose/g (4 hr after injection): 0.321 ± 0.01 % dose/g | Brain % dose/g (4 hr after injection): 0.01 ± 0.00 % dose/g | Heart % dose/g (4 hr after injection): 0.303 ± 0.01 % dose/g | Intestine % dose/g (4 hr after injection): 1.843 ± 0.02 % dose/g | Kidney % dose/g (4 hr after injection): 1.745 ± 0.11 % dose/g | Liver % dose/g (4 hr after injection): 1.538 ± 0.01 % dose/g | Lung % dose/g (4 hr after injection): 0.549 ± 0.03 % dose/g | Muscle % dose/g (4 hr after injection): 0.067 ± 0.00 % dose/g | Spleen % dose/g (4 hr after injection): 3.094 ± 0.50 % dose/g | Stomach % dose/g (4 hr after injection): 1.74 ± 0.01 % dose/g
SMILES: CSC1=[S+][99Tc-2]2(#[N])([NH]N1C)[P+](c1ccccc1)(c1ccccc1)CCOCC[P+]2(c1ccccc1)c1ccccc1 [^99mTc(N)(POP)(DTC)^+]
